Measured values taken from ChEMBL document CHEMBL1201862, “PubChem BioAssay data set” (2004).
Blank lines part the entries; values can stand above or below the molecule they belong to. Calls of active or inactive are those of the source.

Tests used:
[1] = target: ATP-dependent translocase ABCB1 (Homo sapiens, UniProt P08183); test: ABCB1 efflux inhibition concentration-response, dose response, Jurkat-DNR cells, JC-1, flow cytometry, follow-up (AID 489002); format: functional
[2] = target: Kallikrein-7 (Homo sapiens, UniProt P49862); test: Fluorescence Intensity-based biochemical primary high throughput dose response assay to identify activators of kallikrein-7 (K7) zymogen.
Kallikrein-7, sequence (P49862 whole entry): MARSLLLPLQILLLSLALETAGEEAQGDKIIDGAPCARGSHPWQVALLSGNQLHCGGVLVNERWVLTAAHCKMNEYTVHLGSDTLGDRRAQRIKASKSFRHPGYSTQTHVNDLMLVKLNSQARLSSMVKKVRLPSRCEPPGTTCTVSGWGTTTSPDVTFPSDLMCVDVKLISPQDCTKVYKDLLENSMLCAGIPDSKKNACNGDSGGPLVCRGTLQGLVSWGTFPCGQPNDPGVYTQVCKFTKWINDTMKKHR

[3] = Late stage assay provider results from the probe development effort to identify inhibitors of the Plasmodium falciparum M18 Aspartyl Aminopeptidase (M18AAP): radiolabel-based cell-based dose response assay to identify compounds that inhibit P. falciparum growth in RBCs, Set 2..; format: functional
[4] = target: E3 ubiquitin-protein ligase Mdm2 (Homo sapiens, UniProt Q00987); test: enhancers of MDM2-luciferase reporter signal, concentration-effect titration, project on inhibitors of MDM2 ubiquitin ligase, cellular assay, luminescent readout, 384-well plate format (AID 1394); format: functional;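 note: MDM2 E3 inhibitors raise luminescence so EC50 is for signal enhancement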
E3 ubiquitin-protein ligase Mdm2, sequence (Q00987 whole entry): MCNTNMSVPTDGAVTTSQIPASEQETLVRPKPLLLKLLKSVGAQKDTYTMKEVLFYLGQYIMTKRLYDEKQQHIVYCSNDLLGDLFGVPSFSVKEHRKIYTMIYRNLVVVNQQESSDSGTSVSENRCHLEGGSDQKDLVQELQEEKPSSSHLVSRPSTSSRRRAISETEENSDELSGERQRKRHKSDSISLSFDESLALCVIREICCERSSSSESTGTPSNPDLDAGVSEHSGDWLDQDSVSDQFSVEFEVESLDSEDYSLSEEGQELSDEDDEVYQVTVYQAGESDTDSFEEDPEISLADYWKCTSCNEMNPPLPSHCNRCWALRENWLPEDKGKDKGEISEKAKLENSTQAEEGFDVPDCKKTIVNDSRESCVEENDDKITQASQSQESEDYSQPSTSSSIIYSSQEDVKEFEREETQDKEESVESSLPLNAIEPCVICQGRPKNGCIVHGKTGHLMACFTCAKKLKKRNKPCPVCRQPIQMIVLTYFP

[5] = growth suppression of PTEN-null colon cells, dose response, cell-based, HCT116 PTEN knockout (AID 1047); format: functional;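 note: HCT116 colon tumor cells with PTEN knocked out; cells exposed to compound for 60 hours before readout; potency for loss of cell viability measured by luminescence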
[6] = growth suppression of beta-catenin-knockout colon cells, dose response, cell-based, HCT116, human colon tumor (AID 1045); format: functional;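 note: HCT116 colon tumor cells with beta catenin knocked out; cells exposed to compound for 60 hours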
[7] = Luminescence Cell-Based Dose Retest to Confirm Inhibitors of Cancer Stem Cells. [Related pubchem assays (depositor defined):AID2717, AID2721]; format: functional; conditions: Homo sapiens
[8] = target: T1, Microphthalmia-associated transcription factor (Homo sapiens, UniProt O75030); test: TRPM1 promoter luciferase signal decrease, dose response, MITF inhibitor project, cell-based, SK-MEL-5, cherry-picked, set 3 (AID 493073); format: functional
T1 sequence (O75030 whole entry): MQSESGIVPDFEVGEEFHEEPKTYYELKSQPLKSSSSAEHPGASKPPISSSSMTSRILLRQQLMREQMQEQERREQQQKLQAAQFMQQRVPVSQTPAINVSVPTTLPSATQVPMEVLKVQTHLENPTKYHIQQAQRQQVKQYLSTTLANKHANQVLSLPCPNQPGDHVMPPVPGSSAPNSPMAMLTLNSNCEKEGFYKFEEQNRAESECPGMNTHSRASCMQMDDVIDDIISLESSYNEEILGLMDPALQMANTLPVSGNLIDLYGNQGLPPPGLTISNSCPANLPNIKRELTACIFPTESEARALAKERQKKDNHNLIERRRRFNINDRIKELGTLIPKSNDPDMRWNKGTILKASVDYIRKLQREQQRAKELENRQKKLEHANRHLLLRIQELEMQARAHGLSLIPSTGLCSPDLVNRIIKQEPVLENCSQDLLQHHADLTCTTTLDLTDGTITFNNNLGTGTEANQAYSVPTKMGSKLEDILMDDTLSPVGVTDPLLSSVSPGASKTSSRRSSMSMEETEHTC

[9] = Fluorescence-based cell-based high throughput dose response assay for inhibitors of the interaction of nucleotide-binding oligomerization domain containing 2 (NOD2) and the receptor-interacting serine-threonine kinase 2 (RIPK2).; format: functional; conditions: Homo sapiens
[10] = inhibitors of PGC1a acetylation in cells, dose response, cell-based, cherry-picked samples (AID 720514); format: functional;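 note: potency may reflect raised or lowered acetylation signal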
[11] = intracellular Trypanosoma cruzi inhibitors in host cells – cell-based, plate reader, cherry-pick samples, set 3, dose response (AID 651818); format: functional;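 note: compounds incubated with infected cells for about four days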
[12] = target: Endoplasmic reticulum aminopeptidase 2 (Homo sapiens, UniProt Q6P179); test: ERAP2 aminopeptidase inhibitors, dose response, selectivity assay for selective ERAP1 modulator project, biochemical, fluorescence plate reader, cherry-picked, set 2 (AID 743320)
Endoplasmic reticulum aminopeptidase 2, sequence (Q6P179 whole entry): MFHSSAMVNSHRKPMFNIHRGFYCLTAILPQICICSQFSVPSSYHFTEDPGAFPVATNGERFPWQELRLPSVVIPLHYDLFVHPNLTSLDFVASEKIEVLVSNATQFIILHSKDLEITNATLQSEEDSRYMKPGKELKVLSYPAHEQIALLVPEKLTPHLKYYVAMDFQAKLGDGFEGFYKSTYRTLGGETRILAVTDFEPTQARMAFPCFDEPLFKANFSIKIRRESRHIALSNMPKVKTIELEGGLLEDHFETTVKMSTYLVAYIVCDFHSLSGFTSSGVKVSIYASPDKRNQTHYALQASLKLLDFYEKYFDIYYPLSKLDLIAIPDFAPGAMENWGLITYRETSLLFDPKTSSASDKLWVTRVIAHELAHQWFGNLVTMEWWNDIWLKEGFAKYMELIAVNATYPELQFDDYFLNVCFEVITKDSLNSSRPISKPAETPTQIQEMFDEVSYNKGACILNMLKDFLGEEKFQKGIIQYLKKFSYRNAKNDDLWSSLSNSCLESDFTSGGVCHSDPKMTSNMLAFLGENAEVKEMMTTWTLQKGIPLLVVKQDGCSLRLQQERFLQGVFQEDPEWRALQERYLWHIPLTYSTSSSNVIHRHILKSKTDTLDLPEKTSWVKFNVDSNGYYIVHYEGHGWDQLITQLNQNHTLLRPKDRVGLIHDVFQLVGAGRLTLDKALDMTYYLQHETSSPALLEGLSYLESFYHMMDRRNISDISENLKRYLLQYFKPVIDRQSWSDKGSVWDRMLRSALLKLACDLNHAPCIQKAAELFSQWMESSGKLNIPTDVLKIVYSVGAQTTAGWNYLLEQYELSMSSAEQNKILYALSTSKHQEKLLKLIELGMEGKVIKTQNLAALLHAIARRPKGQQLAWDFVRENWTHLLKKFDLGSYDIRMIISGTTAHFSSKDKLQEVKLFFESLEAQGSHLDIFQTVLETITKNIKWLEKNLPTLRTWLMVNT

[13] = IRAP inhibitors, dose response, selectivity assay for ERAP1 modulator project, biochemical, Leu-AMC fluorescence, cherry-picked samples, set 2 (AID 743340)

ATP-dependent translocase ABCB1, sequence (P08183 whole entry): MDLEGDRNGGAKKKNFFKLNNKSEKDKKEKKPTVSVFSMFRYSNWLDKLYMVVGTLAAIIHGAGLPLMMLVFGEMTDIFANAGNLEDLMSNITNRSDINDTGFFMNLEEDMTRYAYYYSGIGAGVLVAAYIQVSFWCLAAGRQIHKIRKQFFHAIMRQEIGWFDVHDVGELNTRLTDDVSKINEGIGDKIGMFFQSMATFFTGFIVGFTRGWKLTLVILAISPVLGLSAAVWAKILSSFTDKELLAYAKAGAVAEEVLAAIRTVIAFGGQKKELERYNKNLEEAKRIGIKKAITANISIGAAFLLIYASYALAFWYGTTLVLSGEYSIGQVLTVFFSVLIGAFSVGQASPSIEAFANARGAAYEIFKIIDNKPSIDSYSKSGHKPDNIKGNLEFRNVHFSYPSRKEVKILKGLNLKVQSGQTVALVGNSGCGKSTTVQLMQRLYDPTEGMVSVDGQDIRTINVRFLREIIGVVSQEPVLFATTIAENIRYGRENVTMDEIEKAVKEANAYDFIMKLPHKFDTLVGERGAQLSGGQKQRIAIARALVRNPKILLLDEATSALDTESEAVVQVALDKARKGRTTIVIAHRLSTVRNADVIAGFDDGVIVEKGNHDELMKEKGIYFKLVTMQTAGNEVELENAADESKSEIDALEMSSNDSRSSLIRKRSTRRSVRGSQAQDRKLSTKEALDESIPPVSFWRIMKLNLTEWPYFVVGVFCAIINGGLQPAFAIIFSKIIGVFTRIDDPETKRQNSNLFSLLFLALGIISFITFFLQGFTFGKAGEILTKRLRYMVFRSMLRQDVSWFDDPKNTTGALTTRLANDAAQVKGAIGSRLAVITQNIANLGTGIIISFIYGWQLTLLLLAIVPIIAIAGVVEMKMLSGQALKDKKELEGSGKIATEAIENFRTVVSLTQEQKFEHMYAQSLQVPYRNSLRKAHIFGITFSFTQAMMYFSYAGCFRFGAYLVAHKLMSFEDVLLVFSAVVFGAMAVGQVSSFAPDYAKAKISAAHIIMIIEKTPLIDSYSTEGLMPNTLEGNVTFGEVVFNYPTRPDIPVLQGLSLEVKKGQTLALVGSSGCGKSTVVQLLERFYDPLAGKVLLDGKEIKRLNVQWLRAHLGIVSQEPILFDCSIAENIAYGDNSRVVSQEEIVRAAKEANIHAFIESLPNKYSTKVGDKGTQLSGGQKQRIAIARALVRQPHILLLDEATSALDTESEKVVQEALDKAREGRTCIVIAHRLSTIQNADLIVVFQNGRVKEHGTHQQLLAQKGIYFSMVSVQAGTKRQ

EC50 [1]: 0.0001485 µM
SMILES: CN(CCN(C)c1cc(-c2ccco2)nc2cc(-c3ccccc3)nn12)C(=O)c1ccoc1

EC50 [2]: 34.8 µM (inactive)
SMILES: CCNC(=O)/C(C#N)=C/c1c(N2CCN(c3ccccc3)CC2)nc2ccccn2c1=O

SMILES: Oc1ccc(CCN2CCc3ccccc3C2)cc1O
IC50 [3]: 7.9 µM (active)

SMILES: O=C(Cn1ncc(Cl)c(Cl)c1=O)NCC1CCCCC1
EC50 [4]: 1.89 µM (active)
EC50 [5]: 2.58 µM (active)
EC50 [6]: 1.44 µM (active)
AC50 [7]: 2.83 µM (active)
AC50 [8]: 7.39 µM (active)
IC50 [9]: 3.98 µM (active)
AC50 [10]: 3.97 µM (active)

SMILES: C[C@H](CO)N1C[C@H](C)[C@@H](CN(C)CC2CC2)Oc2c(NC(=O)Nc3ccc(C(F)(F)F)cc3)cccc2C1=O
AC50 [11]: 1.87 µM (active)
AC50 [12]: > 22 µM (inactive)
AC50 [13]: 16.9 µM (active)
